Earlier results, collected in patent US20240408209A1, “Peptide-Protected Gold Nanocluster and Use in Photodynamic Therapy” (Queen's University at Kingston, priority 2023, published 2024).

Settings: positive control

For CN(C)c1ccc2nc3ccc(=[N+](C)C)cc-3sc2c1 [Methylene blue], the “QY of photochemical generation of 1O2” value is listed as 0.52.
